Source: ChEMBL document CHEMBL1144132, “Dihydrochalcones and flavonolignans from Iryanthera lancifolia” (J Nat Prod, 1999)

assay: Antioxidant activity in brain homogenate assessed as drug level require to inhibit 50% of spontaneous lipid peroxidation relative to control; format: functional, tissue-based

In order of falling Activity:
1. Cc1c(C)c2c(c(C)c1O)CC[C@@](C)(CCC[C@H](C)CCC[C@H](C)CCCC(C)C)O2  12.1 µg/mL
2. O=c1c(O)c(-c2ccc(O)c(O)c2)oc2cc(O)cc(O)c12  7.6 µg/mL
3. COc1ccc(CCC(=O)c2c(O)cc(O)cc2OC)cc1  6.9 µg/mL
4. COc1ccc(CCC(=O)c2c(OC)cc(O)c([C@@H](c3ccc(O)cc3)[C@@H](C)[C@H](C)Cc3ccc(O)cc3)c2O)cc1 (relative stereo)  5.5 µg/mL
5. COc1ccc(CCC(=O)c2c(OC)cc(O)c([C@H](c3ccc(O)cc3)[C@@H](C)[C@H](C)Cc3ccc(O)cc3)c2O)cc1 (relative stereo)  4.8 µg/mL
6. COc1cc(O)c(C(=O)CCc2ccc(O)cc2)c(OC)c1  4.7 µg/mL
